The text below walks through data of article PMC6631999, “A Universal Photochemical Method to Prepare Carbohydrate Sensors Based on Perfluorophenylazide Modified Polydopamine for Study of Carbohydrate-Lectin Interactions by QCM Biosensor” (Polymers, 2019).

The target in assay [1] is T1, soybean agglutinin (SBA) (Glycine max, UniProt P05046).
T1 construct: gene LE1; native commercial plant lectin (Vector Laboratories), in solution
The assay can be described thus: QCM biosensor frequency shift (Attana Cell-A200). It is filed as binding.

The target of assay [2] is T2, peanut agglutinin (PNA) (Arachis hypogaea, UniProt P02872).
T2 construct: native commercial plant lectin (Vector Laboratories), in solution
T2 sequence (P02872 24-273): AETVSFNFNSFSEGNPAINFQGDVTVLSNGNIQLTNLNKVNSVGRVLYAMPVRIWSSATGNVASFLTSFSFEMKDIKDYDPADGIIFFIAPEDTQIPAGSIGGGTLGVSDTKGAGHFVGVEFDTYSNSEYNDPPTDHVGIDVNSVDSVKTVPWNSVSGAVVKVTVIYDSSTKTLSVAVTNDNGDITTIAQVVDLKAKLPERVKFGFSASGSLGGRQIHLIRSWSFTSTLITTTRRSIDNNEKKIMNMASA
Briefly: QCM biosensor frequency shift (Attana Cell-A200). Conditions: sugar photochemically immobilised on PFPA-polydopamine sensor; lectin 100 ug/mL; 10 mM PBS pH 7.4; BSA-blocked. It is filed as binding.

Molecules are shown by their SMILES.

T1 sequence (P05046 33-285): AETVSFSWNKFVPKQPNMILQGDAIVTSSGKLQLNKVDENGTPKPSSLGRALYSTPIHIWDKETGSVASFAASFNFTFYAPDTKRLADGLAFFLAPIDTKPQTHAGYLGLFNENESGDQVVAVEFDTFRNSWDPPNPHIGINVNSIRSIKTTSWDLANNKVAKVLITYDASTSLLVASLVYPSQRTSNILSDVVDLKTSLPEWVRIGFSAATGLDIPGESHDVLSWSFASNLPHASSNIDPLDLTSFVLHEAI

For the compound `OC[C@H]1OC(O)[C@H](O)[C@@H](O)[C@H]1O` (some centres unmarked) [galactose], the “QCM biosensor frequency shift (Attana Cell-A200)” value in assay [1] is “SBA has the highest binding with galactose, followed by PNA”; in assay [2], “both SBA and PNA can bind to galactose, but the binding strengths are different”.
